Where “and” joins values, the source holds several entries; their conditions need not be identical. Equal entries are not always repeated.
Columns and labels:
[1] = general description; cited from earlier work
[2] = system: Squirrel (Saimiri sciureus) monkeys with nigrostriatal damage; test: Levodopa-induced dyskinesias in MPTP-lesioned monkeys, nicotine in drinking solution before levodopa (Example 1); assay type: in vivo; conditions: scale 0-4, mean ± SE
Description: Animals: Squirrel (Saimiri sciureus) monkeys (n=7) were purchased from World Wide Primates (Miami, Fla.). The animals weighed between 0.6-0.9 kg and were in mid to late adulthood as determined from their general appearance (dentition, fur, other). Female monkeys were used since older animals were available that may better model Parkinson's disease. The animals were placed in quarantine upon arrival, and maintained in a temperature-controlled room (27±3° C.) with a relative humidity>30%, under a 13/11-hour light/dark cycle. Monkey food chow and fruits/vegetables were provided once daily, with water provided ad libitum. The monkeys were housed in separate cages to allow for clear behavioral assessments. The animals were released from quarantine after 1 month and treatments initiated. All procedures conformed to the National Institutes of Health Guide for the Care and Use of Laboratory Animals and were approved by the Institutional Animal Care and Use Committee at the Parkinson's Institute.
(§1) 1-Methyl-4-phenyl-1,2,3,6-tetrahydropyridine (MPTP) administration: Prior to lesioning, the animals were allowed to acclimate to the colony and rated for parkinsonism as described (Langston et al. Ann Neurol. 2000; 47:S79-89). All values were within the normal range. The monkeys were then injected subcutaneously with 2.0 mg/kg MPTP (Sigma, St-Louis, Mo.) dissolved in saline. The animals were rated for parkinsonism 3-4 weeks after MPTP administration. The disability scores ranged from 0 (normal) to 28 for a severely parkinsonian animal. Animals were assessed for 1) spatial hypokinesia (reduction in use of the available cage space), 2) body bradykinesia (increased slowness in body movement), 3) left and 4) right manual dexterity, 5) balance, 6) freezing and 7) action tremor. If they were not parkinsonian, MPTP injection (1.0-2.0 mg/kg) was repeated from 2-5 times for total doses of 3.5 to 13.5 mg/kg. Despite multiple MPTP dosing, two of the animals were not stably parkinsonian.
Nicotine treatment: All monkeys (n=7) were then given a drinking solution for 3 weeks consisting of commercially available orange Gatorade® to mask nicotine's bitter taste (FIG. 1). The control group (n=4) was continued on Gatorade® only, while nicotine (free base) was added to the Gatorade of the treated group (n=3). Nicotine dosing was started at 50 μg/ml for 1 week, 150 μg/ml for 1 week, with the concentration increased by […] over the next few weeks, up to 650 μg/ml (FIG. 1).
Levodopa administration: Monkeys were administered levodopa/carbidopa (5 mg/kg and 1.25 mg/kg, respectively), prepared by crushing a tablet of Sinemet® CR 100/25 (DuPont Pharma) and dissolving it in water. This dose of levodopa is within the range of that prescribed to Parkinson's disease patients. The monkeys were gavaged twice daily at 3.5-hour intervals for 8 weeks at a time using a 5-day-on/2-day-off schedule (Hsu et al., J Pharmacol Exp Ther. 2004; 311:770-777). During levodopa treatment, the monkeys were given fruits in the morning and food pellets 3.5 hours after the afternoon levodopa dose to optimize gastrointestinal absorption.
Dyskinesias were rated from videotapes, as described (Hsu et al., J Pharmacol Exp Ther. 2004; 311:770-777). This included a one hour baseline period (no drugs) from ˜8:00-9:00 AM, followed by two 3.5-hour treatment periods with levodopa starting at ˜9:00 AM and ˜12:30 PM. Dyskinesias were rated for 2-minute periods at 30-minute intervals by two independent raters blinded to treatment. They were rated on a scale of 0 (no dyskinesias) to 4; a score of 1 was indicative of subtle dyskinesias that were not sustained; 2, mild dyskinesias that were sustained; 3, moderate dyskinesias that impaired the ability to remain stationary; 4, severe dyskinesias that were generalized and incapacitating.
Data analyses: The levodopa treatment protocol used in the present study involved a 5-day-on/2-day-off schedule.

[3] = system: MPTP-lesioned squirrel monkeys; test: Parkinsonism rating on or off levodopa in MPTP-lesioned monkeys; assay type: in vivo, Saimiri sciureus; design: key to Parkinson Ratings Expt 1 / Parkinson Ratings Expt 2 (crossover): disability score 0 = normal to 28 = severely parkinsonian
Description: as §1
Data analyses: The levodopa treatment protocol used in the present study involved a 5-day-on/2-day-off schedule. Parkinsonian ratings were done on Monday and Friday of each week, with the score averaged over the two days. Dyskinesias ratings were determined by averaging the scores on Wednesday and Thursday of each week. All values are expressed as the mean±SE of the indicated number of animals. Results were compared using paired t-tests or analysis of variance (ANOVA) followed by Bonferroni multiple comparison post hoc test, using Prism® program (GraphPad Software, Inc, San Diego, Calif.). A level of 0.05 was considered significant.
White bars indicate no nicotine treatment and black bars indicate nicotine treatment. Parkinsonism was evaluated immediately before the afternoon L-dopa dose and 1.5 to 2 hours after L-dopa treatment, when a maximal antiparkinsonian effect is anticipated. Two of the seven animals in the study were not parkinsonian, and therefore were not included in this analysis. Error bars are the means±standard error of five animals before and after crossover of nicotine treatment. **p<0.01, as compared with the same group with no L-dopa treatment by a Mann-Withney test.

[4] = on levodopa treatment, 1.5-2 hours after dosing, individual animals, scale 0-28

For N[C@@H](Cc1ccc(O)c(O)c1)C(=O)O [levodopa, (−)-L-a-amino-b-(3,4-dihydroxybenzene) propanoic acid], which solubility in water [1] is on record?
Its solubility in water is “slightly soluble”.

What about the “dyskinetic ratings 3 hours after the afternoon levodopa treatment” value (from here on “dyskinetic ratings 3 hours”) ([2]; week 2/3 of levodopa treatment, levodopa/carbidopa 5/1.25 mg/kg twice daily) of the same compound?
The value was 0.5 ± 0.3.

And the “dyskinetic ratings 3 hours” value ([2]; week 4 of levodopa treatment)?
The value was 1.0 ± 0.4.

What about the “dyskinetic ratings 3 hours” value ([2]; week 6 of levodopa treatment) of the same compound?
The value was 1.1 ± 0.2.

What about the “dyskinetic ratings 3 hours” value ([2]; week 8 of levodopa treatment) of the same compound?
Its value is 0.9 ± 0.1.

And the parkinsonism ratings ([3]; measured 1.5-2 hours after levodopa dosing)?
The parkinsonism ratings was “reduced”.

And the “Parkinson Ratings Expt 1” value [3, 4]?
Its value is 0.4 (2×) and 0.6.

What about the “Parkinson Ratings Expt 2 (crossover)” value [3, 4] of the same compound?
Its value is 1.8 and 0.9.

What about the “Parkinson Ratings Mean ± SE (n)” value ([3]; on levodopa treatment, 1.5-2 hours after dosing, n=5) of the same compound?
Its value is 0.8 ± 0.3 (5).

Reference: patent US7718677B2, “Methods and compositions for reduction of side effects of therapeutic treatments” (priority 2007, dated 2010)
